Test results as given in doi:10.1101/2024.04.30.591959v2, “Structural insights into human propionyl-CoA carboxylase (PCC) and 3-methylcrotonyl-CoA carboxylase (MCC)” (biorxiv, 2024).

Assays:
Assay in all cases: cryo-EM structure, […] Å
Assay type in all cases: binding
human PCC holoenzyme [1] = target: T1, human PCC holoenzyme (Homo sapiens, UniProt P05166); conditions: 10 mM acetyl-CoA, 25 mM NaHCO3, 10 mM MgCl2, 10 mM ATP, pH 7.4; CT-domain active site; acyl group not resolved in map
T1 construct: gene PCCB; endogenous untagged holoenzyme, native purification from Expi 293F cells on Strep-Tactin XT via covalently linked biotin (K694 of PCCα); α6β6 dodecamer; acyl-CoA site between CT-C of one β and CT-N of another β; with Propionyl-CoA carboxylase alpha chain, mitochondrial
T1 sequence (P05166 29-539): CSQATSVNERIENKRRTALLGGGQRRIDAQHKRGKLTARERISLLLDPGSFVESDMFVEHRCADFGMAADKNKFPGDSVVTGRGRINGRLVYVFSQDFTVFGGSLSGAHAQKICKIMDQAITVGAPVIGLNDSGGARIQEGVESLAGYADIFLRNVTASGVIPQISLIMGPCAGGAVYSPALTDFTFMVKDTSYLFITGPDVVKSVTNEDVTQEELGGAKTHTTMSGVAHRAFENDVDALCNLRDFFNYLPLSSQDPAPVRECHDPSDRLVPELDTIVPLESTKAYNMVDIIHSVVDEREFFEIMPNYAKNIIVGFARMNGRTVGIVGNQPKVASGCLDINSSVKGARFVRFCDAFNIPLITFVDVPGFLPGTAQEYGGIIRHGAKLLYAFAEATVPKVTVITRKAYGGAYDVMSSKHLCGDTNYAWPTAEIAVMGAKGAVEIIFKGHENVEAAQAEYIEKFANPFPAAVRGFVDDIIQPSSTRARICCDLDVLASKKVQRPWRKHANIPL
T1 sequence (P05165 53-728 partner): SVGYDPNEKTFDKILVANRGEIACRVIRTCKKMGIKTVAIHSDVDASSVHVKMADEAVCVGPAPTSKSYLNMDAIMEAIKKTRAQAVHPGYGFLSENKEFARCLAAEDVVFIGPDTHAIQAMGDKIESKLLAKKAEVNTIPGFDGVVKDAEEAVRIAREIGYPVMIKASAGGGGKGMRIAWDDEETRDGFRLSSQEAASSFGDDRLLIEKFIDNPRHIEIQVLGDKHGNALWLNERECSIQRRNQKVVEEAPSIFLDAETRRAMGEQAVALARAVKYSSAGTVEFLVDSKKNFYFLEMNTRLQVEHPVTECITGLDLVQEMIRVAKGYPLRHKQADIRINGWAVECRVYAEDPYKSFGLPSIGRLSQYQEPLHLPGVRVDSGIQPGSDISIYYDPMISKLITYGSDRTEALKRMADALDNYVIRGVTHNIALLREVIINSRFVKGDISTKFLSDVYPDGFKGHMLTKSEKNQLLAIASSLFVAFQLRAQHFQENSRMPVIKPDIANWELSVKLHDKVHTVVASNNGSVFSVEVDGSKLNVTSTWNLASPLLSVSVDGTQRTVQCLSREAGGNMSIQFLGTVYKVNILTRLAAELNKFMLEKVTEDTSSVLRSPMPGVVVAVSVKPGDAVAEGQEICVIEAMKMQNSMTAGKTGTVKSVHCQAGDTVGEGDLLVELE

human MCC holoenzyme = target: T2, human MCC holoenzyme (Homo sapiens, UniProt Q9HCC0); conditions: 10 mM acetyl-CoA, 25 mM NaHCO3, 10 mM MgCl2, 10 mM ATP, pH 7.4; CT-domain acyl-CoA pocket; not the natural substrate
T2 construct: gene MCCC2; endogenous untagged holoenzyme, native purification from Expi 293F cells on Strep-Tactin XT via covalently linked biotin (K681 of MCCα); α6β6 dodecamer; acyl-CoA site between CT-C of one β and CT-N of another β; with Methylcrotonoyl-CoA carboxylase subunit alpha, mitochondrial
T2 sequence (Q9HCC0 23-563): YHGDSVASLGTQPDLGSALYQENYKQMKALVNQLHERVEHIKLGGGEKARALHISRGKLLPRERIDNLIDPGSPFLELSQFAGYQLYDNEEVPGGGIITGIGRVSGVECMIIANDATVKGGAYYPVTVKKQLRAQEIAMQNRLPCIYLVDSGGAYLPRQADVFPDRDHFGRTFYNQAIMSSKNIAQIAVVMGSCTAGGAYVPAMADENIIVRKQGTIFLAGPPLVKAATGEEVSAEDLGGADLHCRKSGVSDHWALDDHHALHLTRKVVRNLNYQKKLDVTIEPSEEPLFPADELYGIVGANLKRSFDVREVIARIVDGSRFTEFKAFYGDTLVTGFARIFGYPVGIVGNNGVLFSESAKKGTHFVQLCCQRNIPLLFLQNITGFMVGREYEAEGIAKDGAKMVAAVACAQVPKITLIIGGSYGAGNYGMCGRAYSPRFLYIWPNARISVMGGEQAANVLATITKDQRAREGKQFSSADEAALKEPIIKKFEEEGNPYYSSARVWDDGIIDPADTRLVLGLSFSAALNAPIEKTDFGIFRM
T2 sequence (Q96RQ3 42-725 partner): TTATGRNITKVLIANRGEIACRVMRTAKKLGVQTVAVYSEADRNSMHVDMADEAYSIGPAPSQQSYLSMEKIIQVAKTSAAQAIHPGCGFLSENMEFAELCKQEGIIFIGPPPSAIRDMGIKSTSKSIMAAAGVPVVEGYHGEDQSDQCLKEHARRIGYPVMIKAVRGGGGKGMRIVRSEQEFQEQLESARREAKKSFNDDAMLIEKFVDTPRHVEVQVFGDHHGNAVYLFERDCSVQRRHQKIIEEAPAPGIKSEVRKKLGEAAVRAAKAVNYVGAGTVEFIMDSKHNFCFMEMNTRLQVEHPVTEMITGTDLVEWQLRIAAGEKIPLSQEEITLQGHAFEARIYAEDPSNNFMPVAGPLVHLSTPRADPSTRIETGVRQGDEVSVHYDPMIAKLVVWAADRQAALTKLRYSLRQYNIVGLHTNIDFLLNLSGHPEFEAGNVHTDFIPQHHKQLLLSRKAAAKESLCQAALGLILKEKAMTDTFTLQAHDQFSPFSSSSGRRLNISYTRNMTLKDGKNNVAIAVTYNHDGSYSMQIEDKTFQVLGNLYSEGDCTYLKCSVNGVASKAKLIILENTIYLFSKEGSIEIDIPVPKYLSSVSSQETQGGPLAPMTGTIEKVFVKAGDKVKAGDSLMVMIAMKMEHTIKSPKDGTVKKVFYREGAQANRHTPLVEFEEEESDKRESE

human PCC holoenzyme [2] = target: T1, human PCC holoenzyme; conditions: 10 mM propionyl-CoA, 25 mM NaHCO3, 10 mM MgCl2, 10 mM ATP, pH 7.4; CT-domain active site; acyl group not resolved in map

| Structure (SMILES) | cryo-EM structure, 3.38 Å (human PCC holoenzyme [1]) | cryo-EM structure, 2.85 Å (human MCC holoenzyme) | cryo-EM structure, 2.80 Å (human PCC holoenzyme [2]) |
| --- | --- | --- | --- |
| CC(=O)SCCNC(=O)CCNC(=O)[C@H](O)C(C)(C)COP(=O)(O)OP(=O)(O)OC[C@H]1O[C@@H](n2cnc3c(N)ncnc32)[C@H](O)[C@@H]1OP(=O)(O)O [acetyl-CoA] | The acetyl-CoA in the PCC-ACO structure has a binding mode similar to the propionyl-CoA | PCC and MCC holoenzymes in the acetyl-CoA-bound state (referred to as PCC-ACO and MCC-ACO) | – |
| CCC(=O)SCCNC(=O)CCNC(=O)[C@H](O)C(C)(C)COP(=O)(O)OP(=O)(O)OC[C@H]1O[C@@H](n2cnc3c(N)ncnc32)[C@H](O)[C@@H]1OP(=O)(O)O [propionyl-CoA] | – | – | six propionyl-CoA molecules are observed binding to the six active sites of CT domains |
